This experiment concerns the target STING (Homo sapiens, UniProt Q86WV6, G230A/H232R/R293Q/R71H). Kind of experiment: STING reporter assay in THP1-Dual KO-IFNAR2 cells (2′3′cGAMP stimulation, luciferase reporter). The class given is cell-based. As to conditions: 15 μM 2′3′cGAMP stimulation, 24 h, read-out: Pharmaron, THP1_IFNAR2 STING 24 h Luci Normalized: GeoMean EC50. In outline: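 THP1-Dual KO-IFNAR2 cells (2×10E6 cells/mL) with compounds at 0.0017-100 μM final, stimulated with 15 μM final 2′3′cGAMP delivered by Lipofectamine 2000; 24 h at 37 °C. Luciferase in supernatant read with QUANTI-Luc Plus; EC50 derived from luminescence.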
For orientation: In a reporter assay the amount or activity of a reporter protein is the signal.
Chain of STING (Q86WV6 whole entry R71H/G230A/H232R/R293Q): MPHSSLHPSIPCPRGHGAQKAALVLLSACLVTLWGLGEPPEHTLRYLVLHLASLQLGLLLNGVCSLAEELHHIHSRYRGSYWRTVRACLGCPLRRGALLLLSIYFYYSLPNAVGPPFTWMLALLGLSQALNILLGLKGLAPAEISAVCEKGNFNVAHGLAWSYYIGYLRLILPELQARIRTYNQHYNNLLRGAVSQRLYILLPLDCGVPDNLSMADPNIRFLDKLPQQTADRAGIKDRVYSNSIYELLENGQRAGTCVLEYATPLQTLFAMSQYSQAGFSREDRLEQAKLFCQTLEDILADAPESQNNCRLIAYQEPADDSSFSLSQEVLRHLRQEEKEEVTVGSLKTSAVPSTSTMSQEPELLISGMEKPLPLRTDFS
On to `CC1(C(=O)Nc2c[nH]c3ccc(O[C@H]4C[C@@H](c5ccc(C(F)(F)F)nc5)C4)cc23)CC1` [Compound 579, 1-methyl-N-(5-(cis-3-(6-(trifluoromethyl)pyridin-3-yl)cyclobutoxy)-1H-indol-3-yl)cyclopropane-1-carboxamide], for which the EC50 (as a rule, the concentration giving half of the maximal effect) lay in the range of 200 to 1000 nM. Under `COCC(=O)Nc1c[nH]c2ccc(OCCC3CCN(CC(F)(F)F)CC3)cc12` [Compound 117, 2-methoxy-N-(5-(2-(1-(2,2,2-trifluoroethyl)piperidin-4-yl)ethoxy)-1H-indol-3-yl)acetamide] stands 200 to 1000 nM; under `CC(C)(C)OC(=O)N1CC(C)(C(=O)Nc2c[nH]c3ccc(OCCc4ccc(C(F)(F)F)cc4)cc23)C1` [Compound 570, tert-butyl 3-methyl-3-((5-(4-(trifluoromethyl)phenethoxy)-1H-indol-3-yl)carbamoyl)azetidine-1-carboxylate], 200 to 1000 nM; under `CC[C@H](O)C(=O)Nc1c[nH]c2ccc(OCCc3ccc(C(F)(F)F)cc3)cc12` [Compound 430, (S)-2-hydroxy-N-(5-(4-(trifluoromethyl)phenethoxy)-1H-indol-3-yl)butanamide], 40 to 200 nM. Take `O=C(Nc1c[nH]c2ccc(OCCc3ccc(C(F)(F)F)cc3)cc12)C1CC1(F)F` (stereo not drawn) [Compound 181, 2,2-difluoro-N-(5-(4-(trifluoromethyl)phenethoxy)-1H-indol-3-yl)cyclopropane-1-carboxamide]: the EC50 fell in the range of 200 to 1000 nM.

On to `C[C@]1(C(=O)Nc2c[nH]c3ccc(OCCc4ccc(C(F)(F)F)cc4)cc23)C[C@@H](O)C1` [Compound 445, (cis)-3-hydroxy-1-methyl-N-(5-(4-(trifluoromethyl)phenethoxy)-1H-indol-3-yl)cyclobutane-1-carboxamide], for which the concentration giving a half-maximal response (EC50) lay in the range of 40 to 200 nM. As for `CC(=O)Nc1c[nH]c2ccc(OCC(F)(F)CN3CCC(F)(F)CC3)cc12` [Compound 112, N-(5-(3-(4,4-difluoropiperidin-1-yl)-2,2-difluoropropoxy)-1H-indol-3-yl)acetamide], the EC50 was in the range of 5000 to 100000 nM. On to `C[C@]1(C(=O)Nc2c[nH]c3ccc(OCC[C@@H]4C[C@@H]5CN(CC(F)(F)F)C[C@@H]5C4)cc23)C[C@H](CO)C1` [Compound 512, (1r,3R)-3-(hydroxymethyl)-1-methyl-N-(5-(2-((3aR,5r,6aS)-2-(2,2,2-trifluoroethyl)octahydrocyclopenta[c]pyrrol-5-yl)ethoxy)-1H-indol-3-yl)cyclobutane-1-carboxamide], for which the EC50 lay in the range of 200 to 1000 nM. `C[C@H]1C[C@H](C(=O)Nc2c[nH]c3ccc(OCC[C@@H]4C[C@@H]5CN(CC(F)(F)F)C[C@@H]5C4)cc23)C1` [Compound 341, (1r,3R)-3-methyl-N-(5-(2-((3aR,5r,6aS)-2-(2,2,2-trifluoroethyl)octahydrocyclopenta[c]pyrrol-5-yl)ethoxy)-1H-indol-3-yl)cyclobutane-1-carboxamide]: the EC50 was in the range of 200 to 1000 nM. Take `CC[C@@H](O)C(=O)Nc1c[nH]c2ccc(OCC[C@@H]3C[C@@H]4CN(CC(F)(F)F)C[C@@H]4C3)cc12` [Compound 522, (R)-2-hydroxy-N-(5-(2-((3aR,5r,6aS)-2-(2,2,2-trifluoroethyl)octahydrocyclopenta[c]pyrrol-5-yl)ethoxy)-1H-indol-3-yl)butanamide]: the EC50 was in the range of 40 to 200 nM. Take `C[C@H]1C[C@H](C(=O)Nc2c[nH]c3ccc(O[C@H]4C[C@@H](c5ccc(C(F)(F)F)cc5)C4)cc23)C1` [Compound 334, trans-3-methyl-N-(5-(cis-3-(4-(trifluoromethyl)phenyl)cyclobutoxy)-1H-indol-3-yl)cyclobutane-1-carboxamide]: the EC50 was in the range of 40 to 200 nM. The figure for `CC(=O)Nc1c[nH]c2ccc(Cc3ccc(C(F)(F)F)cc3)cc12` [Compound 128, N-(5-(4-(trifluoromethyl)benzyl)-1H-indol-3-yl)acetamide] is 200 to 1000 nM; for `CC(=O)Nc1c[nH]c2ccc(O[C@H]3C[C@H](c4ccc(C(F)(F)F)cc4)C3)cc12` [Compound 103, N-(5-(trans-3-(4-(trifluoromethyl)phenyl)cyclobutoxy)-1H-indol-3-yl)acetamide] it is 40 to 200 nM. Regarding `CC1(C)CC(C(=O)Nc2c[nH]c3ccc(OCc4ccc(C(F)(F)F)cc4)cc23)C1` [Compound 327, 3,3-dimethyl-N-(5-((4-(trifluoromethyl)benzyl)oxy)-1H-indol-3-yl)cyclobutane-1-carboxamide], the EC50 lay in the range of 200 to 1000 nM. Under `CC(=O)Nc1c[nH]c2ccc(C(O)CCc3ccc(C(F)(F)F)cc3)cc12` (stereo not drawn) [Compound 282, N-(5-(1-hydroxy-3-(4-(trifluoromethyl)phenyl)propyl)-1H-indol-3-yl)acetamide] stands 1000 to 5000 nM. Under `CO[C@H]1C[C@H](C(=O)Nc2c[nH]c3ccc(OCC[C@@H]4C[C@@H]5CN(CC(F)(F)F)C[C@@H]5C4)cc23)C1` [Compound 296, trans-3-methoxy-N-(5-(2-((3aR,5r,6aS)-2-(2,2,2-trifluoroethyl)octahydrocyclopenta[c]pyrrol-5-yl)ethoxy)-1H-indol-3-yl)cyclobutane-1-carboxamide] stands 40 to 200 nM; under `CC(=O)Nc1c[nH]c2ccc(OCCC34CC(C(F)(F)F)(C3)C4)cc12` [Compound 474, N-(5-(2-(3-(trifluoromethyl)bicyclo[1.1.1]pentan-1-yl)ethoxy)-1H-indol-3-yl)acetamide], 200 to 1000 nM; under `CC(=O)Nc1c[nH]c2c(C)cc(OCCC3CCN(CC(F)(F)F)CC3)cc12` [Compound 281, N-(7-methyl-5-(2-(1-(2,2,2-trifluoroethyl)piperidin-4-yl)ethoxy)-1H-indol-3-yl)acetamide], 5000 to 100000 nM. The figure for `O=C(Nc1c[nH]c2ccc(OCCc3ccc(C(F)(F)F)cc3)cc12)C1CC(Cl)C1` (stereo not drawn) [Compound 217, 3-chloro-N-(5-(4-(trifluoromethyl)phenethoxy)-1H-indol-3-yl)cyclobutane-1-carboxamide] is 40 to 200 nM; for `CC(=O)Nc1c[nH]c2ccc(CCOc3ccc(C(F)(F)F)cc3Br)cc12` [Compound 544, N-(5-(2-(2-bromo-4-(trifluoromethyl)phenoxy)ethyl)-1H-indol-3-yl)acetamide] it is 200 to 1000 nM; for `CC(=O)Nc1c[nH]c2ccc(CO[C@H]3C[C@H](c4ccc(C(F)(F)F)cc4)C3)cc12` [Compound 482, N-(5-((trans-3-(4-(trifluoromethyl)phenyl)cyclobutoxy)methyl)-1H-indol-3-yl)acetamide] it is 40 to 200 nM. Take `[2H][13C]([2H])([2H])C(=O)Nc1c[nH]c2ccc(CCOc3ccc(C(F)(F)F)cc3)cc12` [Compound 545, N-(5-(2-(4-(trifluoromethyl)phenoxy)ethyl)-1H-indol-3-yl)acetamide-2-13C-2,2,2-d3]: the EC50 was 40 to 200 nM. The figure for `CC1(C(=O)Nc2c[nH]c3ccc(OCc4ccc(C(F)(F)F)cc4)cc23)CCC1` [Compound 294, 1-methyl-N-(5-((4-(trifluoromethyl)benzyl)oxy)-1H-indol-3-yl)cyclobutane-1-carboxamide] is 40 to 200 nM; for `O=C(Nc1c[nH]c2ccc(O[C@H]3C[C@H](c4ccc(C(F)(F)F)cc4)C3)cc12)C1CCOCC1` [Compound 493, N-{5-[(1R,3R)-3-[4-(trifluoromethyl)phenyl]cyclobutoxy]-1H-indol-3-yl}oxane-4-carboxamide] it is 40 to 200 nM.
